In patent publication US20080107727A1, “Multiple Unit Oral Sustained Release Preparation and Production Method Thereof” (priority 2005, published 2008):

Assay: Gastrointestinal absorption of imidafenacin in rats, in-situ loop technique
Format: in vivo, Male Wistar rats
Conditions: rat in-situ loop, 0.2 mL of 500 μg/mL isotonic solution, after 1 hour
Procedure: In designing oral sustained release preparations of imidafenacin, it is necessary to know the absorption properties of imidafenacin in the gastrointestinal tract. We therefore examined the gastrointestinal absorption properties of imidafenacin in rats using the in-situ loop technique. The specific procedures were as follows: Male Wistar rats (aged 7 to 9 weeks) were dissected under anesthesia with pentobarbital sodium and the common bile duct was ligated. Loops were prepared from the stomach, duodenum, jejunum, ileum and colon. 0.2 mL each of an isotonic solution (500 μg/mL) of imidafenacin was injected into the loops in […]. After 1 hour, the lumen of the loops was washed sequentially with water and 0.01 mol/L hydrochloric acid and the wash was collected from each loop. The concentration of imidafenacin in the wash was determined by high performance liquid chromatography. The standard curve was determined by applying the least squares method to the ratio of the peak areas between the imidafenacin concentration for a similarly treated standard specimen and the concentration of internal standard of imidafenacin determined by chromatography. The concentration of imidafenacin in the wash for a specimen was determined by substituting the ratio of the peak area into the standard curve. The absorption of imidafenacin for each loop was calculated by the equations (1) and (2) below. The results are shown in FIG. 5. % Remaining imidafenacin in a loop=(Conc. of imidafenacin in the wash for the loop)×25 (1) % Absorption of imidafenacin in a loop=100-% Remaining imidafenacin in that loop (2)

## Cc1nccn1CCC(C(N)=O)(c1ccccc1)c1ccccc1 [imidafenacin, 4-(2-methyl-1-imidazolyl)-2,2-diphenylbutylamide]
  absorption of imidafenacin in colon loop: Some absorption
  absorption of imidafenacin in small intestine loops (duodenum, jejunum, ileum): effectively absorbed
  absorption of imidafenacin in stomach loop: less significant
